Results on 15 compounds are retold here after patent US20100215741A1, “PHARMACEUTICAL COMPOUNDS” (priority 2009, published 2010).

The target of one data set is T1, CB2 receptors (Mus musculus, UniProt P47936).
T1 construct: the complete brain (excluding the cerebellum) and the spleen were quickly dissected and kept in ice; from tissue; host or cells: mouse spleen, membrane preparation
The data set is described as follows: radioreceptor binding, displacement of [3H]-CP-55,940, CB2 (spleen). As for the experimental part:
(§1) The affinity of the compounds towards the CB1 and CB2 cannabinoidergic receptors was evaluated in vitro by radioreceptor binding studies using the following method.
(§2) The technique of the receptor binding allows to establish if, and with which affinity and specificity, a specific compound binds to a particular receptor. To evaluate the affinity of a specific compound to a particular receptor it is necessary to challenge in a particular tissue preparation wherein those specific receptors are present the compound to be tested with a radioactive labelled compound whose affinity for the same receptors is known. […] The amount of radioactivity present in the receptor-compound complex allows furthermore to stimate with great accuracy the amount of compound bound to the receptor. By said method it is therefore possible to stablish quickly the affinity of a new compound towards a specific receptor and thus to determine its pharmacological activity. With the same experimental protocol it is possible to evaluate the affinity of the compound towards other receptors and thus establish its specificity degree toward said other receptors.
(§3) The food and water were ad libitum.
(§4) The procedure adopted, based on the use of the compound [^3H]-CP-55,940 (New England Nuclear, Boston, Mass., USA), requires the use of the mouse brain as biological tissue for the evaluation of the affinity towards the CB1 receptors and of the mouse spleen for the affinity assay for the CB2 receptors.
(§5) The animals were sacrificed by cervical dislocation and the complete brain (excluding the cerebellum) and the spleen were quickly dissected and kept in ice.
(§6) The tissue was homogenized in 15 volumes (weight/-volume) of TME buffer (50 Mm Tris, 1 mM EDTA and 3 mM MgCl2, pH 7.4) by an Ultra-Turrax and subsequently centrifuged for 10 minutes at 1086×g in a centrifuge refrigerated at 4° C. The recovered supernatant was centrifuged at 45,000×g for 30 minutes at 4° C. by using a Beckman SW41 rotor and the obtained pellet was resuspended in 50 volumes of TME.
(§7) The thus obtained membranes (50-80 μg of proteins) were incubated in the presence of 1 nM of [^3H]-CP55.940 for 1 hour at 30° C. in a final volume of 0.5 ml of TME buffer containing […] (BSA). The non specific binding was measured in the presence of CP55.940 at a 1 μM concentration.
(§8) All the experiments were carried out in polypropylene test tubes pretreated with Sigma-Cote (Sigma Chemical Co. Ltd., Poole, UK) for reducing non specific binding.
(§9) In order to determine the competitive inhibition binding curves, eight different concentrations of each compound were used.
(§10) Incubation was stopped by addition of TME buffer (at 4° C.) containing 5 mg/ml of BSA, and subsequent filtration under vacuum by Whatman GFC filters pretreated with 0.5% of polyethylamine (PEI) and by using a filtering device (Brandell, Gaithersburg, Md., USA). The filters were washed 3 times with 5 ml of Tris HCl buffer (pH 7.4, 4° C.) containing 1 mg/ml of BSA and separately placed in plastic vials containing 4 ml of scintillating liquid (Ultima Gold MV, Packard).
(§11) The radioactivity present in the filters was determined by a scintillator spectrophotometer (Tricarb® 2100, Packard, Meridien, USA).
(§12) Protein determination was carried out by the Bradford method by using the protocol and the reactants supplied by Bio-Rad (Milano, Italy).
A general note: Loss of bound radioactivity is the signal in a displacement assay; it reports binding, not function.

The next data set has as its target T2, CB1 receptors (Mus musculus, UniProt P47746).
T2 construct: the complete brain (excluding the cerebellum) and the spleen were quickly dissected and kept in ice; from tissue; host or cells: mouse brain (excluding the cerebellum), membrane preparation
The data set is described as follows: radioreceptor binding, displacement of [3H]-CP-55,940, CB1 (brain). As for the experimental part: as §1, §2, §3, §4, §5, §6, §7, §8, §9, §10, §11, §12

[1] abbreviates: mouse spleen membranes, 1 nM [3H]-CP55.940, 1 hour at 30° C., read-out: CB2 (spleen) Ki.

Read-outs that look alike come from different tables or passages of the source.

One may read the melting point as the temperature, or range, at which the solid turns liquid. The Ki is the equilibrium dissociation constant of an inhibitor or competing ligand from its target.

T1 sequence (P47936 whole entry): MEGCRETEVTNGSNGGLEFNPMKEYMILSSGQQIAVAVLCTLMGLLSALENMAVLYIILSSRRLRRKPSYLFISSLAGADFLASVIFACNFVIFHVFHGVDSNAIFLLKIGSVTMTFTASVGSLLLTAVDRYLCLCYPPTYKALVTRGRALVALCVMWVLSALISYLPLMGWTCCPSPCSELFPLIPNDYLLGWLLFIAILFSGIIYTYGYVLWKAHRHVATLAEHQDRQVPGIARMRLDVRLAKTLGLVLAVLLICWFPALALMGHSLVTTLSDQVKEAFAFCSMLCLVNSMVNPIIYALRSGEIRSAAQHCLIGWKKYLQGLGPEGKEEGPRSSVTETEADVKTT
T2 sequence (P47746 whole entry): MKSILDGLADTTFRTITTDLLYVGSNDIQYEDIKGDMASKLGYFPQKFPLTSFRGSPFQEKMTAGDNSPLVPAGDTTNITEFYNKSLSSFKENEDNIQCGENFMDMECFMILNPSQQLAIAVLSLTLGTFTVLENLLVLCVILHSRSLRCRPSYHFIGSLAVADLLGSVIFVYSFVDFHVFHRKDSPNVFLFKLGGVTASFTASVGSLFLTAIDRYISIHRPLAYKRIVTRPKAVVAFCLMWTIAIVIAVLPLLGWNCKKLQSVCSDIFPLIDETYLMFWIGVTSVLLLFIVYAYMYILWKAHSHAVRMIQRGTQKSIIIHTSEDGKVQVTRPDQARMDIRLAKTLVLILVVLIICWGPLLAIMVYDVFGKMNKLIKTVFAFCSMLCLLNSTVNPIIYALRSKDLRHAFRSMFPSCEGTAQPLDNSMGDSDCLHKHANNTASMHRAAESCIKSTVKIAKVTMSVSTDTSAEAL

Take `Cc1ccc2c(c1)oc1c(C(N)=O)nn(-c3ccc(Cl)cc3Cl)c12` [1-(2,4-dichlorophenyl)-6-methyl-1H-benzofuro [3,2-c]pyrazole-3-carboxamide]: the melting point was in the range of 185 to 186 °C.
In the case of `CC1(C)C2CCC(CNC(=O)c3nn(-c4ccc(Cl)cc4Cl)c4c3CCCc3ccc(Cl)cc3-4)C1C2` (stereo not shown) [Example 3.1, N-myrtanyl-9-chloro-1-(2′,4′-dichlorophenyl)-1,4,5,6-tetrahydrobenzo[6,7]cyclohepta[1,2-c]pyrazol-3-carboxamide], the Ki was 23.3 ± 1.6 nM at CB2 receptors (setting [1]) and 20 ± 5 nM on CB1 receptors.
`CC1(C)C2CCC(CNC(=O)c3nn(-c4ccc(Cl)cc4Cl)c4c3CCOc3cc(Cl)ccc3-4)C1C2` (stereo not shown) [Example 3.3, N-myrtanyl-8-chloro-1-(2′,4′-dichlorophenyl)-4,5-dihydrobenzo-1H-6oxa-cyclohepta[1,2-c]pyrazol-3-carboxamide]: the melting point is 142 to 143 °C. Also, the Ki on CB2 receptors (setting [1]) stood at 325 ± 38 nM. For the same compound, on CB1 receptors, the Ki came out at 21.7 ± 3 nM.
As to `CC1(C)C2CCC(CNC(=O)c3nn(-c4ccc(Cl)cc4Cl)c4c3CCCc3cc(Cl)ccc3-4)C1C2` (stereo not shown) [Example 3.4, N-myrtanyl-8-chloro-1-(2′,4′-dichlorophenyl)-1,4,5,6-tetrahydrobenzo[6,7]cyclohepta[1,2-c]pyrazol-3-carboxamide], the Ki on CB2 receptors (setting [1]) is 19.6 ± 1.5 nM; at CB1 receptors, 2.6 ± 0.17 nM.
Taken in the same sequence, the figures for `Cc1ccc2c(c1)Cc1c(C(=O)NCC3CCC4CC3C4(C)C)nn(-c3ccc(Cl)cc3Cl)c1-2` (stereo not shown) [Example 3.15, N-myrtanyl-1-(2′,4′-dichlorophenyl)-6-methyl-1,4-dihydroindeno[1,2-c]pyrazole-3-carboxamide] were 2.3 ± 0.5 nM and 350 ± 76 nM.
For the compound `Cc1ccc2c(c1)oc1c(C(=O)NN3CCCCC3)nn(-c3ccc(Cl)cc3Cl)c12` [Example 3.20, N-piperidinyl-1-(2,4-dichlorophenyl)-6-methyl-1H-benzofuro[3,2-c]pyrazole-3-carboxamide], the melting point lay in the range of 155 to 157 °C. At CB2 receptors, this compound yielded a Ki of 12.9 ± 1.1 nM. For the same compound, the Ki at CB1 receptors is 1790 ± 330 nM.
`Cc1ccc2c(c1)oc1c(C(=O)NN3CCCC3)nn(-c3ccc(Cl)cc3Cl)c12` [Example 3.21, N-pyrrolidinyl-1-(2,4-dichlorophenyl)-6-methyl-1H-benzofuro[3,2-c]pyrazole-3-carboxamide] gave a melting point of 90 to 92 °C. At CB2 receptors, the affinity, expressed as Ki, was 29.5 ± 8 nM. The compound further registered a Ki on CB1 receptors of 2720 ± 652 nM.
`Cc1ccc2c(c1)oc1c(C(=O)NN3CCOCC3)nn(-c3ccc(Cl)cc3Cl)c12` [Example 3.22, N-morpholin-4-yl-1-(2,4-dichlorophenyl)-6-methyl-1H-benzofuro[3,2-c]pyrazole-3-carboxamide]: the melting point was in the range of 178 to 180 °C. Also, the inhibition constant Ki at CB2 receptors was found to be 37.7 ± 6.3 nM. The inhibition constant Ki at CB1 receptors turned out to be 4060 ± 64 nM.
Compound `Cc1ccc2c(c1)oc1c(C(=O)NC3CCCCC3)nn(-c3ccc(Cl)cc3Cl)c12` [Example 3.23, N-cyclohexyl-1-(2,4-dichlorophenyl)-6-methyl-1H-benzofuro[3,2-c]pyrazole-3-carboxamide] yielded a melting point of 140 to 142 °C. This compound registered a Ki on CB2 receptors of 15.6 ± 4 nM. On CB1 receptors, this compound came in with a Ki of 1250 ± 129 nM.
For `Cc1ccc2c(c1)oc1c(C(=O)N[C@H]3C[C@@H](C)CC[C@@H]3C(C)C)nn(-c3ccc(Cl)cc3Cl)c12` [Example 3.24, N-2-isopropyl-5-methyl-cyclohexyl-1-(2,4-dichlorophenyl)-6-methyl-1H-benzofuro[3,2-c]pyrazole-3-carboxamide], the melting point fell in the range of 70 to 72 °C. Further, the inhibitory constant (Ki) at CB2 receptors (setting [1]) was determined as 2.3 ± 0.3 nM. For the same compound, the Ki on CB1 receptors is 38.2 ± 6 nM.
As for `Cc1ccc2c(c1)oc1c(C(=O)N[C@@H]3C[C@H]4C[C@@H]([C@@H]3C)C4(C)C)nn(-c3ccc(Cl)cc3Cl)c12` [Example 3.25, N-2,6,6-trimethyl-bicyclo[3.1.1]hept-3-yl-1-(2,4-dichlorophenyl)-6-methyl-1H-benzofuro[3,2-c]pyrazole-3-carboxamide], the melting point fell in the range of 85 to 87 °C. Further, the affinity at CB2 receptors, expressed as Ki, was 3.7 ± 0.3 nM. Further, the affinity at CB1 receptors corresponds to a Ki of 2400 ± 629 nM.
`Cc1ccc2c(c1)oc1c(C(=O)NC3C4(C)CCC(C4)C3(C)C)nn(-c3ccc(Cl)cc3Cl)c12` (stereo not shown) [Example 3.26, N-1,3,3-trimethyl-bicyclo[2.2.1]hept-2-yl-1-(2,4-dichlorophenyl)-6-methyl-1H-benzofuro[3,2-c]pyrazole-3-carboxamide] returned a melting point of 84 to 86 °C. This compound showed a Ki on CB2 receptors of 2.5 ± 0.3 nM. The Ki on CB1 receptors turned out to be 257 ± 7 nM.
Regarding `Cc1ccc2c(c1)oc1c(C(=O)NC3CC4CCC3(C)C4(C)C)nn(-c3ccc(Cl)cc3Cl)c12` (stereo not shown) [Example 3.27, N-1,7,7-trimethyl-bicyclo[2.2.1]hept-2-yl-1-(2,4-dichlorophenyl)-6-methyl-1H-benzofuro[3,2-c]pyrazole-3-carboxamide], the melting point was 78 to 80 °C. For the same compound, the Ki on CB2 receptors was 3.5 ± 0.6 nM. At CB1 receptors, this compound displayed a Ki of 469 ± 64 nM.
Taken in the same sequence, the figures for `Cc1ccc2c(c1)oc1c(C(=O)NC34CC5CC(CC(C5)C3)C4)nn(-c3ccc(Cl)cc3Cl)c12` [Example 3.28, N-adamantan-1yl-1-(2,4-dichlorophenyl)-6-methyl-1H-benzofuro[3,2-c]pyrazole-3-carboxamide] were 210 to 212 °C, 28 ± 6.6 nM and 363 ± 92 nM.
Take `Cc1ccc2c(c1)oc1c(C(=O)NC3C4CC5CC(C4)CC3C5)nn(-c3ccc(Cl)cc3Cl)c12` (stereo not shown) [Example 3.29, N-adamantan-2-yl-1-(2,4-dichlorophenyl)-6-methyl-1H-benzofuro[3,2-c]pyrazole-3-carboxamide]: the melting point lay in the range of 209 to 211 °C. In addition, the Ki on CB2 receptors is 17.5 ± 0.9 nM. The same compound registered a Ki on CB1 receptors of 537 ± 132 nM.
